Earlier results on five compounds are cited in US20110270212A1, “PHARMACOKINETIC CONTROL FOR OPTIMIZED INTERFERON DELIVERY” (MEDTRONIC, INC., priority 2007, published 2011).

Data set [1] concerns HCV. Particulars: oral doses up to 4500 mg.
For data set [2], the system named is HCV. The conditions noted are these: in vivo.
Data set [3] concerns HCV. The conditions noted are these: across all dosing arms.
The test system of data set [4] is Hepatitis C virus replication (replicon model). Particulars: via protease inhibition.
The test system of data set [5] is HCV. Particulars: ribavirin combined with interferon-α, genotype 1 population.
For data set [6] the following is noted: subcutaneously.

Turning to `[N-]=[N+]=N[C@]1(CO)O[C@@H](n2ccc(N)nc2=O)[C@H](O)[C@@H]1O` [R1626, 4′-azidocytidine], in the data set on HCV [1], the tolerability result is on record as “generally well-tolerated with increasing adverse events at the highest dose”. For the same compound, the “response with pegylated interferon/ribavirin” value with HCV [2] was “good response”.
Take `CC(C)C(=O)OC[C@H]1O[C@@H](n2ccc(N)nc2=O)[C@](C)(F)[C@@H]1OC(=O)C(C)C` [R71278]: the antiviral activity entry in the data set on HCV [3] is “dose-dependent antiviral activity”.
Regarding `COc1ccc2c(O[C@@H]3C[C@H]4C(=O)N[C@]5(C(=O)NS(=O)(=O)C6CC6)C[C@H]5/C=C\CCCCN(C)C(=O)[C@@H]4C3)cc(-c3nc(C(C)C)cs3)nc2c1C` [TMC435350], the “Hepatitis C virus replication in replicon experiments” value in data set [4] was “reduce the amount of Hepatitis C virus replication”.
`NC(=O)c1ncn([C@@H]2O[C@H](CO)[C@@H](O)[C@H]2O)n1` [ribavirin, 1-β-D-ribofuranosyl-1H-1,2,4-triazole-3-carboxamide]: the “therapeutic effectiveness of the combination” value in the data set with HCV [5] is listed as 29%.
As for interferon-α, in data set [6], the “dose administered without adverse reactions” value was “up to 300 million IU/m^2”.
